The target of this assay is Adenylate cyclase. The experiment in a line: Compound was tested for the adenylate cyclase stimulation. In kind it is protein assay.

For two compounds, EC50 results are on record in ChEMBL document CHEMBL1126151, “A study on the contribution of the 1-phenyl substituent to the molecular electrostatic potentials of some benzazepines in relation to selective dopamine D-1 receptor activity” (J Med Chem, 1992).

On to `Oc1cc2c(cc1O)[C@@H](C1CCCCC1)CNCC2`, for which the half-maximal effective concentration (EC50) (in general, the concentration that produces a half-maximal response) was over 0.00001 M. To `Oc1cc2c(cc1O)CCNCC2` belongs 5.2e-06 M.
